Test results as given in patent publication US20150175655A1 (priority 2012, published 2015).
pKi: −log10 of the molar value.

biological target: T1, NS3 genotype 3a protease (UniProt Q81258); assay: Ki determination, NS3 protease genotype 3a (fluorogenic depsipeptide substrate); assay type: biochemical, hepatitis C virus; settings: 200 pM enzyme, 20 μM NS4A peptide, 2 μM substrate, read-out: Ki 3A
T1 construct: Purified NS3 protease domain (amino acids 1-181) of the genotype 1b and 3a virus were generated as above; fused on or other part: N-terminal hexahistidine tag and rTEV protease cleavage site (vector p28-N6H-Tev-NS3(181)3)
T1 sequence (Q81258 1033-1663): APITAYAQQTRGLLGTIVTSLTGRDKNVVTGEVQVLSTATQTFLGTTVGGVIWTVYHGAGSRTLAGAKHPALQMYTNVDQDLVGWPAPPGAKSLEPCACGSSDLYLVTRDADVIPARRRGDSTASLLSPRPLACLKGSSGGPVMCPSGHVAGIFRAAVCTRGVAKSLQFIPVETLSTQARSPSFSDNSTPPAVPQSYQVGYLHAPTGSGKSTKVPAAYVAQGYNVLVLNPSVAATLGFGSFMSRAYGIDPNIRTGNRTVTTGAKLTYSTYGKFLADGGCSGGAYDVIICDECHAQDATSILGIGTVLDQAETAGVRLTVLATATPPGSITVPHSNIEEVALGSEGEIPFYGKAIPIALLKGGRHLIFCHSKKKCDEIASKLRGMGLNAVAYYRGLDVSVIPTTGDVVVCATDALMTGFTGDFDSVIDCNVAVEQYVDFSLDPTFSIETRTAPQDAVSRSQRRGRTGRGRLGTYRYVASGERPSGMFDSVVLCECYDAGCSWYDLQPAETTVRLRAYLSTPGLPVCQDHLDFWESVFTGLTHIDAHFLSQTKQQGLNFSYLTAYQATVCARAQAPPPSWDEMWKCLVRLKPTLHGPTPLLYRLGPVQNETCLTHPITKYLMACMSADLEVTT
Excerpt: The coding sequences for the genotype 3 HCV protease domain was amplified by RT-PCR using a Titan One Tube RT-PCR Kit (Roche, Indianapolis, Ind.) and RNA extracted from HCV-positive human serum (BBI Diagnostics, MA) using a QIAmp UltraSens Virus Kit (Qiagen, Valencia, Calif.). 5′ PCR primers were designed to encode N-terminal hexahistidine tags and to insert in-frame rTEV protease cleavage sites into the NS3 protease coding sequences. The resulting DNA fragments were cloned into pET28 yielding the expression vectors p28-N6H-Tev-NS3(181)1a and p28-N6H-Tev-NS3(181)3, respectively.
BL21AI bacteria (Invitrogen, Carlsbad, Calif.) were transformed with genotype 1b or 3 NS3 expression vectors and used to inoculate a 20 L fermentation vessel (Sartorius BBI System Inc., Bethlehem, Pa.), containing 18 L of fresh 2YT medium supplemented with 50 μg/mL kanamycin. When cell densities reached an OD600 of 1, the temperature of the cultures was reduced from 37° C. to 28° C. and induction was immediately initiated by the addition of 30 μM ZnSO4, 14 mM L-arabinose and 1 mM Isopropyl β-D-thiogalactoside (IPTG) final concentrations. Cells were harvested by centrifugation four hours post-induction and were stored as frozen pellets at −80° C. prior to NS3 protein purification.
Bacterial pellets collected from the expression of genotype 3 HCV NS3 protease were homogenized in Lysis Buffer (25 mM tris, pH 7.5 buffer containing 150 mM NaCl and 1 mM phenylmethanesulfonyl fluoride (PMSF)) and passed through a microfluidizer at 18,000 pounds/in^2. Homogenized cell lysates were centrifuged at 30,000×g for 30 minutes at 4° C. The resulting P1 pellets were washed with Wash Buffer I (25 mM tris, pH 7.5 containing 1% CHAPS) followed by centrifugation at 10,000×g for 30 minutes at 4° C. […] The resulting P3 pellets were resuspended in Solubilization Buffer (20 ml of 25 mM tris, pH 7.5 containing 150 mM NaCl and 8 M urea) and incubated at 4° C. for one hour. Solubilized proteins were passed through a 0.45 micron filter. Protein concentrations were measured and the solutions were adjusted to 40 mM DTT, incubated for 30 minutes at 4° C. and then quickly diluted into Refolding Buffer (25 mM tris, pH 8.5, 0.8 M Guanidine-HCl, 0.4 M L-Arginine, 10 mM ZnSO4) while stirring. Protein solutions were incubated at 4° C. overnight to allow refolding. Refolded proteases were centrifuged at 30,000×g for 10 minutes to remove residual precipitates. Final protein concentrations were then measured and the NS3 proteases were aliquoted, snap frozen in liquid nitrogen and stored at −80° C.
Purified NS3 protease domain (amino acids 1-181) of the genotype 1b and 3a virus were generated as above. The internally quenched fluorogenic depsipeptide substrate Ac-DED(Edans)-EEAbuψ[COO]ASK(Dabcyl)-NH2 and a synthetic peptide containing the hydrophobic core residues of the NS4A protein cofactor ([…]; NS4A peptide) were obtained from Anaspec, Inc. (San Jose, Calif.). Other chemicals and biochemicals were of reagent grade or better and were purchased from standard suppliers.
Reactions were run at room temperature in buffer consisting of 50 mM HEPES, 40% glycerol, 0.05% Triton X-100, 10 mM DTT, and 10% DMSO. The final assay solutions contained 50 pM NS3 genotype 1b protease or 200 pM genotype 3a protease, 20 μM NS4A peptide, and 4 μM substrate (genotype 1 b) or 2 μM substrate (genotype 3a). Inhibitor concentrations varied from 100 nM to 5 pM in 3-fold dilutions, and no-inhibitor controls were included.
Compound dilutions were made in DMSO at 20× final concentration. Reaction mixtures were prepared in 96-well assay plates. A solution of enzyme and NS4A peptide in assay buffer (25 μL volume with both reagents at 4× final concentration) was mixed with 45 μL assay buffer and 5 μL of either inhibitor or DMSO, and pre-incubated at room temperature for 1 hour. The reaction was started by addition of 25 μL substrate solution at 4× final concentration. […]

| Compound | pKi |
| --- | --- |
| CC[C@@H]1[C@@H]2CN(C(=O)[C@H](C(C)(C)C)NC(=O)O[C@@H]3C[C@H]3CCCCC(F)(F)c3nc4ccc(OC)cc4nc3O2)[C@@H]1C(=O)N[C@]1(C(=O)NS(=O)(=O)C2(C)CC2)C[C@H]1CC(F)F [Example 35, (1aR,5S,8S,9S,10R,22aR)-5-tert-butyl-N-[(1R,2S)-2-(2,2-difluoroethyl)-1-{[(1-methylcyclopropyl)sulfonyl]carbamoyl}cyclopropyl]-9-ethyl-18,18-difluoro-14-methoxy-3,6-dioxo-1,1a,3,4,5,6,9,10,18,19,20,21,22,22a-tetradecahydro-8H-7,10-methanocyclopropa[18,19][1,10,3,6]dioxadiazacyclononadecino[11,12-b]quinoxaline-8-carboxamide] | 9.64 |
| COc1ccc2nc3c(nc2c1)O[C@H]1CN(C(=O)[C@H](C(C)(C)C)NC(=O)O[C@H]2CC4CC(C4)[C@@H]2CCCCC3)[C@H](C(=O)N[C@]2(C(=O)NS(=O)(=O)C3CC3)C[C@H]2C(F)F)[C@@H]1C [Example 72, (4aS,8S,11S,12S,13R,25aS)-8-tert-butyl-N-[(1R,2R)-1-[(cyclopropylsulfonyl)carbamoyl]-2-(difluoromethyl)cyclopropyl]-17-methoxy-12-methyl-6,9-dioxo-2,3,4,4a,6,7,8,9,12,13,21,22,23,24,25,25a-hexadecahydro-1H,11H-1,3:10,13-dimethanoquinoxalino[2,3-k][1,10,3,6]benzodioxadiazacyclononadecine-11-carboxamide] | 8.39 |
| CC[C@@H]1[C@@H]2CN(C(=O)[C@H](C(C)(C)C)NC(=O)O[C@@]3(C)C[C@@H]3CCCCC(F)(F)c3nc4ccc(OC)cc4nc3O2)[C@@H]1C(=O)N[C@]1(C(=O)NS(=O)(=O)C2(C)CC2)C[C@H]1C(F)F [Example 64, (1aS,5S,8S,9S,10R,22aS)-5-tert-butyl-N-[(1R,2R)-2-(difluoromethyl)-1-{[(1-methylcyclopropyl)sulfonyl]carbamoyl}cyclopropyl]-9-ethyl-18,18-difluoro-14-methoxy-1a-methyl-3,6-dioxo-1,1a,3,4,5,6,9,10,18,19,20,21,22,22a-tetradecahydro-8H-7,10-methanocyclopropa[18,19][1,10,3,6]dioxadiazacyclononadecino[11,12-b]quinoxaline-8-carboxamide] | 8.92 |
| CC[C@@H]1[C@@H]2CN(C(=O)[C@H](C(C)(C)C)NC(=O)O[C@@H]3C[C@H]3CCCCC(F)(F)c3nc4ccc(C#N)cc4nc3O2)[C@@H]1C(=O)N[C@]1(C(=O)NS(=O)(=O)C2(C)CC2)C[C@H]1C(F)F [Example 87, (1aR,5S,8S,9S,10R,22aR)-5-tert-butyl-14-cyano-N-[(1R,2R)-2-(difluoromethyl)-1-{[(1-methylcyclopropyl)sulfonyl]carbamoyl}cyclopropyl]-9-ethyl-18,18-difluoro-3,6-dioxo-1,1a,3,4,5,6,9,10,18,19,20,21,22,22a-tetradecahydro-8H-7,10-methanocyclopropa[18,19][1,10,3,6]dioxadiazacyclononadecino[11,12-b]quinoxaline-8-carboxamide] | 10.30 |
| COc1ccc2nc3c(nc2c1)O[C@H]1CN(C(=O)[C@H](C(C)(C)C)NC(=O)O[C@@H]2C[C@@H]4C[C@@H]4[C@H]2CCCCC3(F)F)[C@H](C(=O)N[C@]2(C(=O)NS(=O)(=O)C3(C)CC3)C[C@H]2C(F)F)[C@@H]1C [Example 81, (1aS,2aR,6S,9S,10S,11R,23aR,23bS)-6-tert-butyl-N-[(1R,2R)-2-(difluoromethyl)-1-{[(1-methylcyclopropyl)sulfonyl]carbamoyl}cyclopropyl]-19,19-difluoro-15-methoxy-10-methyl-4,7-dioxo-1a,2,2a,4,5,6,7,10,11,19,20,21,22,23,23a,23b-hexadecahydro-1H,9H-8,11-methanocyclopropa[4′,5′]cyclopenta[1′,2′:18,19][1,10,3,6]dioxadiazacyclononade cino[11,12-b]quinoxaline-9-carboxamide] | 10.30 |
| C[C@@H]1[C@@H]2CN(C(=O)[C@H](C(C)(C)C)NC(=O)O[C@@H]3C[C@@H]4C[C@@H]4[C@H]3CCCCC(F)(F)c3nc4ccccc4nc3O2)[C@@H]1C(=O)N[C@]1(C(=O)NS(=O)(=O)C2(C)CC2)C[C@H]1C(F)F [Example 82, (1aS,2aR,6S,9S,10S,11R,23aR,23bS)-6-tert-butyl-N-[(1R,2R)-2-(difluoromethyl)-1-{[(1-methylcyclopropyl)sulfonyl]carbamoyl}cyclopropyl]-19,19-difluoro-10-methyl-4,7-dioxo-1a,2,2a,4,5,6,7,10,11,19,20,21,22,23,23a,23b-hexadecahydro-1H,9H-8,11-methanocyclopropa[4′,5′]cyclopenta[1′,2′:18,19][1,10,3,6]dioxadiazacyclononade cino[11,12-b]quinoxaline-9-carboxamide] | 10.40 |
| CC[C@@H]1[C@@H]2CN(C(=O)[C@H](C(C)(C)C)NC(=O)O[C@@H]3[C@H]4CC[C@H](C4)[C@H]3CCCCCc3nc4ccc(OC)cc4nc3O2)[C@@H]1C(=O)N[C@]1(C(=O)NS(=O)(=O)C2(C)CC2)C[C@H]1C(F)F [Example 37, (1R,4S,4aR,8S,11S,12S,13R,25aR)-8-tert-butyl-N-[(1R,2R)-2-(difluoromethyl)-1-{[(1-methylcyclopropyl)sulfonyl]carbamoyl}cyclopropyl]-12-ethyl-17-methoxy-6,9-dioxo-2,3,4,4a,6,7,8,9,12,13,21,22,23,24,25,25a-hexadecahydro-1H,11H-1,4:10,13-dimethanoquinoxalino[2,3-k][1,10,3,6]benzodioxadiazacyclononadecine-11-carboxamide] | 9.72 |

same assay, conditions: read-out: Ki 3A, 200 pM enzyme, 20 μM NS4A peptide, 2 μM substrate

| Compound | pKi |
| --- | --- |
| COc1ccc2nc3c(nc2c1)O[C@H]1CN(C(=O)[C@H](C(C)(C)C)NC(=O)O[C@@H]2C[C@@H]4C[C@@H]4[C@H]2CCCCC3)[C@H](C(=O)N[C@]2(C(=O)NS(=O)(=O)C3(C)CC3)C[C@H]2CC(F)F)[C@@H]1C [Example 58, (1aS,2aR,6S,9S,10S,11R,23aR,23bS)-6-tert-butyl-N-[(1R,2S)-2-(2,2-difluoroethyl)-1-{[(1-methylcyclopropyl)sulfonyl]carbamoyl}cyclopropyl]-15-methoxy-10-methyl-4,7-dioxo-1a,2,2a,4,5,6,7,10,11,19,20,21,22,23,23a,23b-hexadecahydro-1H,9H-8,11-methanocyclopropa[4′,5′]cyclopenta[1′,2′:18,19][1,10,3,6]dioxadiazacyclononade cino[11,12-b]quinoxaline-9-carboxamide] | 9.77 |
